What was measured:
[1] = target: Vasopressin V2 receptor (Homo sapiens, UniProt P30518)
[2] = target: T1, B2 bradykinin receptor (Homo sapiens, UniProt P30411)
T1 sequence (P30411 whole entry): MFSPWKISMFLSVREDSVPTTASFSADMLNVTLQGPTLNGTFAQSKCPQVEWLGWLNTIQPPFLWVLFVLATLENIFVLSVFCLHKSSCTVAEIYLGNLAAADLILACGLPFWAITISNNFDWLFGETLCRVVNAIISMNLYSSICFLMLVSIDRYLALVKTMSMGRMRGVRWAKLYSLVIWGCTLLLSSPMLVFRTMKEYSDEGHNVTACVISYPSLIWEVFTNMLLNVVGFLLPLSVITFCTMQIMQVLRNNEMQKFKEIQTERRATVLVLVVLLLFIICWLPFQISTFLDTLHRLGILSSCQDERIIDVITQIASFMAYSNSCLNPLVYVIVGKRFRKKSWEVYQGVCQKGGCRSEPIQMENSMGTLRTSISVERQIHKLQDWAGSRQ

[3] = target: T2, Cholecystokinin receptor type A (Homo sapiens, UniProt P32238)
T2 sequence (P32238 whole entry): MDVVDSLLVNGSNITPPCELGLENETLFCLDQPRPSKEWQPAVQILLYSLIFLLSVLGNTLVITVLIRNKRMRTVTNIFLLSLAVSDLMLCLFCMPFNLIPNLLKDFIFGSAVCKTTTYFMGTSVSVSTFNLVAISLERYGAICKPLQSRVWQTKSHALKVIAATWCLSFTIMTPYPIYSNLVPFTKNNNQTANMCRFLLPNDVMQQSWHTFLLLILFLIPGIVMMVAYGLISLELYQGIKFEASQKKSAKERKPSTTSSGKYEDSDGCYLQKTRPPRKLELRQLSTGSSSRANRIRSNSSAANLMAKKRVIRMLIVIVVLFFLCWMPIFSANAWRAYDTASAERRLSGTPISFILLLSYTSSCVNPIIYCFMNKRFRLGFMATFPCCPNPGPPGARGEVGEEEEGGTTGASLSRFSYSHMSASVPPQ

[4] = target: T3, Muscarinic acetylcholine receptor M1 (Homo sapiens, UniProt P11229); format: functional, cell-based
T3 sequence (P11229 whole entry): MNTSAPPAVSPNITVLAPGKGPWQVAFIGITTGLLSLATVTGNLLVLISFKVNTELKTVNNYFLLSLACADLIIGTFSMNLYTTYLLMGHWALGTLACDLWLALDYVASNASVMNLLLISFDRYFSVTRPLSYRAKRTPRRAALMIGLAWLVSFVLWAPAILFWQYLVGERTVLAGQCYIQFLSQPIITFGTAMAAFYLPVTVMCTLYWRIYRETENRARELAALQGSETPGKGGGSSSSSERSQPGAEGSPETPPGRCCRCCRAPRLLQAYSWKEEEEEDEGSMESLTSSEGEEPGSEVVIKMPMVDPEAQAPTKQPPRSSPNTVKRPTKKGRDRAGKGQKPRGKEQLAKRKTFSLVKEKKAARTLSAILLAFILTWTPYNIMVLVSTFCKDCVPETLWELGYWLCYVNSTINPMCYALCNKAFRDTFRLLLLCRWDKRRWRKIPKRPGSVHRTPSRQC

[5] = target: Gamma-aminobutyric acid receptor subunit alpha-1 (Rattus norvegicus, UniProt P62813); format: functional
Sequence of Gamma-aminobutyric acid receptor subunit alpha-1 (P62813 whole entry): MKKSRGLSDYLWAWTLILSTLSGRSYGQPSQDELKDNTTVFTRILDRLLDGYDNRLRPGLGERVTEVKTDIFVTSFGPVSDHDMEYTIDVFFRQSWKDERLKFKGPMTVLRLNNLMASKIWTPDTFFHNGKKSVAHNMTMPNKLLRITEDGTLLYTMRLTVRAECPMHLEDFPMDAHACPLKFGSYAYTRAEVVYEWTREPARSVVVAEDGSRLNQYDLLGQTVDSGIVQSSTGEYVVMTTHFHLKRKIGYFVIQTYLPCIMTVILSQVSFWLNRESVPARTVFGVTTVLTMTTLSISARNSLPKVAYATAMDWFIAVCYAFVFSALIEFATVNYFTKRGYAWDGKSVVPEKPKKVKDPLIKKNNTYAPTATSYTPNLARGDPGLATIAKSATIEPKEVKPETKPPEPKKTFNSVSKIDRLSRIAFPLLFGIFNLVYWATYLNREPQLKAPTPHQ

[6] = target: T4, Muscarinic acetylcholine receptor M2 (Homo sapiens, UniProt P08172); format: functional, cell-based
T4 sequence (P08172 whole entry): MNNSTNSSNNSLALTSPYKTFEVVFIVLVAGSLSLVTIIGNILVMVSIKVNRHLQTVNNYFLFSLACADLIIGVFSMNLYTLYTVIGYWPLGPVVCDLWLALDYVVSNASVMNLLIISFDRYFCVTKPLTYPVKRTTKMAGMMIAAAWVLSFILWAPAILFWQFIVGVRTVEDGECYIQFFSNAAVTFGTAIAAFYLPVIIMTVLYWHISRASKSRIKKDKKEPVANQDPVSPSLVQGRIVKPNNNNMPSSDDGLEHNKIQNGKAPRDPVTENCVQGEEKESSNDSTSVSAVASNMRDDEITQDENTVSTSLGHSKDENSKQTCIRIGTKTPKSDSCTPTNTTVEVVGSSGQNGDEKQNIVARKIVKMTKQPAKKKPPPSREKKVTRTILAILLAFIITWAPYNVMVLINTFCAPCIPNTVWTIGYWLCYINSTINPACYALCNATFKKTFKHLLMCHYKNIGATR

[7] = target: T5, Amine oxidase [flavin-containing] A (Homo sapiens, UniProt P21397); format: functional
T5 sequence (P21397 whole entry): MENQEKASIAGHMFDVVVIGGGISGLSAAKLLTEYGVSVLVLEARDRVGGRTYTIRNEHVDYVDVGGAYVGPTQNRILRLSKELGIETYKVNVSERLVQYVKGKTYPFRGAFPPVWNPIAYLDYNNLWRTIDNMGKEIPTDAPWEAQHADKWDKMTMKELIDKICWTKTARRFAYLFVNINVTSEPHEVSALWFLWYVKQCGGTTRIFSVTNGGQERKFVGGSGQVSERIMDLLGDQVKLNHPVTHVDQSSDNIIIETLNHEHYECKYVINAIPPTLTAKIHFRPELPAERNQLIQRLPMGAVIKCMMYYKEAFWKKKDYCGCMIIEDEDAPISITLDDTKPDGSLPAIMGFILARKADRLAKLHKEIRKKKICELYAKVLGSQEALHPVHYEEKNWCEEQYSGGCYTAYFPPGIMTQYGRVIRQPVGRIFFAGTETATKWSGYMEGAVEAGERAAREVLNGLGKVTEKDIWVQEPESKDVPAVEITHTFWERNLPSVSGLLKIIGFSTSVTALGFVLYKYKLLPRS
Also: assay procedure not described here.

Sequence of Vasopressin V2 receptor (P30518 whole entry): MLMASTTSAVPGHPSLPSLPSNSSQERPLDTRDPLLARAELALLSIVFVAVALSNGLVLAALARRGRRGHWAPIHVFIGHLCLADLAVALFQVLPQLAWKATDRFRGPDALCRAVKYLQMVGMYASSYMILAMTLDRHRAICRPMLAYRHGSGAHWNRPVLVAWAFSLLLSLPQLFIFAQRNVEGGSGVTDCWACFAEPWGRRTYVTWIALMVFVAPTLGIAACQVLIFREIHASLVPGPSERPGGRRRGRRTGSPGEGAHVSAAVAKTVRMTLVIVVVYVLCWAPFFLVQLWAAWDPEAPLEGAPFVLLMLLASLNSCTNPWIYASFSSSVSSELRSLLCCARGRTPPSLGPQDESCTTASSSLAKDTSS

Compound	AC50 [4]	further results
C[C@]1(COc2ccc(N3CCC(Oc4ccc(OC(F)(F)F)cc4)CC3)cc2)Cn2cc([N+](=O)[O-])nc2O1	> 30 µM	AC50 [1]: > 30 µM; AC50 [2]: > 30 µM; AC50 [3]: > 30 µM; AC50 [5]: > 10 µM
CNC(=O)C[C@@H](N)C(=O)N[C@@H](C(=O)N[C@@H]1C(=O)N2[C@@H]1SC(C)(C)[C@@H]2C(=O)O)c1ccc(O)cc1 [ASPOXICILLIN]	> 30 µM	
COC(=O)C1=C(C)NC(C)=C(C(=O)O[C@H]2CCN(Cc3ccccc3)C2)[C@H]1c1cccc([N+](=O)[O-])c1 [BARNIDIPINE]	> 30 µM	
C[C@@H](O)[C@H]1C(=O)N2C(C(=O)[O-])=C(SC3Cn4cnc[n+]4C3)[C@H](C)[C@H]12 (stereo not given in full) [BIAPENEM]	> 30 µM	
CCCCOc1ccc(CC(=O)NO)cc1 [BUFEXAMAC]	> 30 µM	
Cc1nnc(SCC2=C(C(=O)O)N3C(=O)[C@@H](NC(=O)Cn4cc(Cl)c(=O)c(Cl)c4)[C@H]3SC2)s1 [CEFAZEDONE]	> 30 µM	
CO/N=C(\C(=O)N[C@@H]1C(=O)N2C(C(=O)[O-])=C(C[n+]3cccc4c3CCC4)CS[C@H]12)c1csc(N)n1 [CEFPIROME]	> 30 µM	AC50 [6]: > 30 µM; AC50 [5]: > 30 µM; AC50 [7]: > 30 µM
Nc1ncnc(Nc2ccc(Cl)cc2)n1 [CHLORAZANIL]	> 30 µM	
CCC[C@@H]1C[C@@H](C(=O)N[C@@H]([C@H]2O[C@H](SC)[C@H](OP(=O)(O)O)[C@@H](O)[C@H]2O)[C@H](C)Cl)N(C)C1 [CLINDAMYCIN PHOSPHATE]	> 30 µM	
C[C@@H]1C[C@H]2[C@@H]3C[C@H](F)C4=CC(=O)C=C[C@]4(C)[C@@]3(Cl)[C@@H](O)C[C@]2(C)[C@H]1C(=O)COC(=O)C(C)(C)C [CLOCORTOLONE PIVALATE]	> 30 µM	
O=P(O)(O)C(Cl)(Cl)P(=O)(O)O [CLODRONIC ACID]	> 30 µM	
Nc1ccncc1 [DALFAMPRIDINE]	27.9 µM	
Cc1onc(-c2c(Cl)cccc2Cl)c1C(=O)N[C@@H]1C(=O)N2[C@@H]1SC(C)(C)[C@@H]2C(=O)O [DICLOXACILLIN]	> 30 µM	
C[C@@H](O)[C@H]1C(=O)N2C(C(=O)O)=C([C@H]3CCCO3)S[C@H]12 [FAROPENEM]	> 30 µM	
CCOC(=O)c1ccc(OC(=O)CCCCCNC(=N)N)cc1 [GABEXATE]	> 30 µM	
CCCCC/C=C\C/C=C\C/C=C\CCCCC(=O)O [GAMOLENIC ACID]	> 30 µM	
COCCOc1cnc(NS(=O)(=O)c2ccccc2)nc1 [GLYMIDINE]	> 30 µM	
CC(N)CCCC(C)(C)O (stereo not given) [HEPTAMINOL]	> 30 µM	
CCC(=O)O[C@]1(C(=O)COC(C)=O)CC[C@H]2[C@@H]3CCC4=CC(=O)CC[C@]4(C)[C@H]3[C@@H](O)C[C@@]21C [HYDROCORTISONE ACEPONATE]	> 30 µM	
O=[N+]([O-])O[C@H]1CO[C@H]2[C@@H]1OC[C@H]2O[N+](=O)[O-] [ISOSORBIDE DINITRATE]	> 30 µM	
NC(=O)NCCC[C@H](N)C(=O)O [L-CITRULLINE]	> 30 µM	

Compound	AC50 [4]	further results
CC(=O)O[C@H]1C[C@H](O[C@H]2[C@@H](O)C[C@H](O[C@H]3[C@@H](O)C[C@H](O[C@H]4CC[C@@]5(C)[C@H](CC[C@@H]6[C@@H]5C[C@@H](O)[C@]5(C)[C@@H](C7=CC(=O)OC7)CC[C@]65O)C4)O[C@@H]3C)O[C@@H]2C)O[C@H](C)[C@H]1O[C@@H]1O[C@H](CO)[C@@H](O)[C@H](O)[C@H]1O [LANATOSIDE C]	> 30 µM	
Nc1nc(N)nc(Nc2ccc([As]3SCC(CO)S3)cc2)n1 (stereo not given) [MELARSOPROL]	> 30 µM	
Cc1cc(CCN2CCN(c3cccc(Cl)c3)CC2)n[nH]1 [MEPIPRAZOLE]	> 30 µM	
CC[N+](C)(CC)CCOC(=O)C1c2ccccc2Oc2ccccc21 [METHANTHELINE]	> 30 µM	
CO[C@H]1[C@@H](O)C[C@H](O[C@H]2[C@@H](O)C[C@H](O[C@H]3[C@@H](O)C[C@H](O[C@H]4CC[C@@]5(C)[C@H](CC[C@@H]6[C@@H]5C[C@@H](O)[C@]5(C)[C@@H](C7=CC(=O)OC7)CC[C@]65O)C4)O[C@@H]3C)O[C@@H]2C)O[C@@H]1C [METILDIGOXIN]	> 30 µM	
CC1(C)S[C@@H]2[C@H](NC(=O)[C@H](NC(=O)N3CCN(S(C)(=O)=O)C3=O)c3ccccc3)C(=O)N2[C@H]1C(=O)O [MEZLOCILLIN]	> 30 µM	
CCOC(=O)[C@H](CCc1ccccc1)N[C@@H](C)C(=O)N1Cc2cc(OC)c(OC)cc2C[C@H]1C(=O)O [MOEXIPRIL]	> 30 µM	
CC(c1ccc(Cl)c(Cl)c1)N1N=C(N)CC1=O (stereo not given) [MUZOLIMINE]	> 30 µM	
CCN(CC)CCOC(=O)C(Cc1cccc2ccccc12)CC1CCCO1 (stereo not given) [NAFRONYL]	> 30 µM	
c1ccc2c(CC3=NCCN3)cccc2c1 [NAPHAZOLINE]	> 30 µM	
N[C@@H](Cc1c[nH]c2ccc(O)cc12)C(=O)O [OXITRIPTAN]	> 30 µM	
C1CNCCN1 [PIPERAZINE]	> 30 µM	
c1cc(CN2CCCNCCNCCCNCC2)ccc1CN1CCCNCCNCCCNCC1 [PLERIXAFOR]	> 30 µM	
O=C(NC(Cc1cc(=O)[nH]c2ccccc12)C(=O)O)c1ccc(Cl)cc1 (stereo not given) [REBAMIPIDE]	> 30 µM	
CO[C@H]1/C=C/O[C@@]2(C)Oc3c(C)c(O)c4c(O)c(cc(O)c4c3C2=O)NC(=O)/C(C)=C\C=C\[C@H](C)[C@H](O)[C@@H](C)[C@@H](O)[C@@H](C)[C@H](OC(C)=O)[C@@H]1C [RIFAMYCIN]	11.6 µM	
CCCC(=O)O[C@H]1[C@H](C)O[C@@H](O[C@H]2[C@H](N(C)C)[C@@H](O)[C@H](O[C@H]3[C@@H](CC=O)C[C@@H](C)[C@@H](O)/C=C/C=C/C[C@@H](C)OC(=O)C[C@@H](O)[C@@H]3OC)O[C@@H]2C)C[C@@]1(C)OC(=O)CC [ROKITAMYCIN]	> 30 µM	
CCCCCCCCCCCCCCCCCC(=O)NCCCC[C@H](NC(=O)CC[C@@H](NC(=O)[C@H](C)NC(=O)[C@@H](C)O[C@H]1[C@H](O)[C@@H](CO)OC(O)[C@@H]1NC(C)=O)C(N)=O)C(=O)O (stereo not given in full) [ROMURTIDE]	> 30 µM	
CCOC(=O)[C@H](CCc1ccccc1)N[C@H]1CS[C@H](c2cccs2)CN(CC(=O)O)C1=O [TEMOCAPRIL]	> 30 µM	
COc1cc([C@@H]2c3cc4c(cc3[C@@H](O[C@@H]3O[C@@H]5CO[C@@H](c6cccs6)O[C@H]5[C@H](O)[C@H]3O)[C@H]3COC(=O)[C@H]23)OCO4)cc(OC)c1O [TENIPOSIDE]	> 30 µM	
CCSc1ccc2c(c1)N(CCCN1CCN(C)CC1)c1ccccc1S2 [THIETHYLPERAZINE]	29.1 µM	AC50 [6]: > 10 µM; AC50 [7]: > 30 µM

— ChEMBL document CHEMBL5291721, “A preclinical secondary pharmacology resource illuminates target-adverse drug reaction associations of marketed drugs” (Nat Commun, 2023)
